“Also recorded” adds a separate entry of the source.
What was measured:
NRP-1/OBR complex = NRP-1/OBR complex detection by Duolink Proximity Ligation Assay in MDA-MB-231 cells; format: cell-based, human; settings: Leptin stimulation compared to serum starved and unstimulated cells
From the text: FIG. 2A-E. NRP-1/OBR complex is dependent of the activity of Protein-kinase CK2: NRP-1 and OBR are both a substrate of the holoenzyme CK2: In vitro phosphorylation of the recombinant full length NRP-1 (A) and the length OBR (B) indicate that the CK2β subunit is indispensable for the CK2 activity. C. Detection of the NRP-1 and CK2β subunit interaction: By using the PLA technology, the in vitro data showing the implication of CK2β subunit in the phosphorylation of NRP-1 by CK2 are in part confirmed in MDA-MB231 cells by the detection of CK2β interaction with NRP-1 as indicated by the duolink (white dot). […] E. inhibition of the NRP-1/OBR by the simultaneous CK2α and CK2α′ expression silencing using siRNA that confirms the CK2 implication In the NRP-1/OBR complex formation and nuclear localization.
To confirm a direct association of NRP-1 and Leptin in breast cancer cell migration, we investigated the NRP-1 and OBR interaction by using proximity ligation assay technology (Duolink) in MDA-MB-231 and in T47D-NRP-1. Since OBR is a member of the class I cytokine receptor family, we asked the question if the formation of the complex NRP-1/OBR can or not be modulated by Leptin. This question was investigated endogenously in MDA-MB-231 or by transient transfection of T47D either by NRP-1 or by NRP-1/OBR or OBR alone. After 24 h of transfection, cells were serum starved for 16 h then stimulated with Leptin (10 nM). After 3 h, the stimulation was stopped by removing the medium, cells was first washed then fixed and NRP-1/OBR complex formation was analyzed by Duolink in situ Proximity Ligation Assay (PLA) and by confocal microscopy detection. Co-localization was analyzed using JACoP (ImageJ; National Institutes of Health, Bethesda, Md.) software. Co-localization between molecules was indicated by a positive Pearson coefficient (r). First, the expression of NRP-1 in transfected T47D was confirmed by RT-PCR. NRP-1 forms a complex with endogenous OBR as it is shown by the Duolink detection as red dot in cells transfected with pcDNA3-NRP-1. The Duolink signal increased in the T47D co-transfected with NRP-1 and OBR. The Duolink signals in T47D transfected with either the empty vector pcDNA3 or with the OBR expressing vector were similar. The same results are observed in MDA-MB-231. […] By using subcellular protein fractionation kit, NRP-1 and OBR localization in cytoplasmic (C), membrane (M), in the total nuclear extract (N) or in soluble nuclear (SN) and chromatin bound fractions (CB) was analyzed by western blotting either in total lysate or after coimmunoprecipitation. The purity of fraction was assessed by the detection of specific proteins of each fraction such as Hsp90 for the C fraction, SP1 and HDAC2 for the SN and CB fractions and specifically the Calreticulin for endoplasmic reticulum (ER) in order to detect any contamination by the ER membrane fraction in the nuclear fractions. As suspected, OBR was coimmunoprecipitated with NRP-1 in the cytoplasmic (C) and in the nuclear fraction (N) of MDA-MB-231 but not in T47D. As well as Phosphorylated OBR (P-OBR), NRP-1 was detected in cytoplasmic fraction and in nuclear fractions SN and CB of 16 h serum starved MDA-MB-231 and stimulated with 10 nM of Leptin during 3 h at 37° C. The P-OBR and NRP-1 coimmunoprecipitated in the nuclear fractions, increasing with Leptin stimulation as observed by confocal microscopy.
As attempted, NRP-1/OBR complex was detected by confocal microscopy after by Duolink in situ Proximity Ligation Assay (PLA) in MDA-MB-231 stimulated with Leptin (10 nM). This detection was also observed in MDA-MB-231-shGFP but very less in MDA-MB-231-shNRP-1 confirming NRP-1 association with OBR.

MDA-MB-231 cells = experiment: MDA-MB-231 cell migration / transmigration through insert; format: cell-based, human
From the text: FIG. 5. NRP-1, OBR and leptin interactions confirmation using a Bio-Layer Interferometry (BLI) technology (fortebio.com/bli-technology.html): A-Leptin (OB) interaction to OBR is used as a positive control. Human neuropilin-1 (hNRP-1) interact with human OBR with a high affinity and specifically with human leptin (hOB) but not with murine leptin (mOB). VEGF165 binding to hNRP-1 is used as a positive control. B-Leptin and Avastin association increases MDA-MB231 cells transmigration through […] pore Insert. Avastin treatment may prevent a negative feedback control by VEGF of the pro-angiogenic signaling pathway of Leptin. VEGF binds to OBR which confirms our hypothesis that should be more investigated.
First MBA-MB-231 and T47D breast cancer cells line were selected for their high and undetectable NRP-1 expression respectively and the expression of Leptin receptor (OBR). In order to investigate NRP-1 and Leptin association in breast cancer cell line migration, we proceeded to NRP-1 expression silencing in MDA-MB-231 using either siRNA or shRNA approaches or NRP-1 overexpression in T47D. […] In contrast Leptin induced MDA-MB-231 migration that was decreased in siNRP-1 conditions. The in vitro data were confirmed in vivo by MDA-MB-231 and T47D xenografts in Nude mice. Modulation of NRP-1 expression either by shRNA silencing in MDA-MB-231 or by overexpression in T47D induced an increase of proliferation and a decrease of lymph node infiltration by MDA-MB-231-shNRP-1 and a decrease of proliferation and an increase of lymph node infiltration by T47D-NRP-1-RFP in mice treated with Leptin.
Leptin induced in vitro MDA-MB-231 migration that was decreased by NRP-1 repression using siRNA. Lel Xu et al have reported a direct evidence of NRP-1 up-regulation in tumors treated by anti-VEGF (Bevacizumab). […] This observation can be a first explanation of breast cancer therapy failure (increase of Progression survival while decreasing overall survival) by Bevacizumad and that was revoked by the FDA (Food and Drugs Administration, US).

Substance: Leptin: small non glycosylated protein, ligand of OBR
- direct interaction between NRP-1 and OBR (Duolink PLA) (NRP-1/OBR complex): takes place under Leptin stimulation
- MDA-MB-231 migration induced by Bevacizumab, effect of Leptin (MDA-MB-231 cells; 10 μg/ml of Bevacizumab plus Leptin): increased
- MDA-MB-231 migration (MDA-MB-231 cells; in vitro, Leptin alone): increased; also recorded: induced

Source: US11629192B2, “Methods and pharmaceutical compositions for the treatment of diseases mediated by the NRP-1/OBR complex signaling pathway” (INSERM (Institut National de la Sante et de la Recherche …, priority 2014, dated 2023)
